The values below come from patent US5889053A, “Farnesyl transferase inhibitors, preparation thereof and pharmaceuticals compositions containing said inhibitors” (Rhone-Poulenc Rorer S.A., priority 1995, dated 1999).

Test [1] deals with T1, human farnesyl transferase (Homo sapiens, UniProt P49354+P49356).
T1 construct: human farnesyl transferase purified from THP1 cell cultures; endogenous in cells; host or cells: THP1
The test can be described thus: Inhibition of farnesyl transferase and of farnesylation of the Ras protein ([3H]farnesyl transfer from [3H]FPP to p21 H-Ras). The note with it: p21 H-Ras substrate, 20 min at 37° C., 9 concentrations; read-out: Inhibitory activity IC50. It is filed as biochemical. Here is the method: Farnesyl transferase activity is determined by the quantity of [^3 H]farnesyl transferred from [^3 H]farnesyl pyrophosphate ([^3 H]FPP) to the p21 H-Ras protein. The standard reaction mixture is composed, for a final volume of 60 μl, of 50 mM Tris-HCl, 5 mM MgCl2, 5 mM dithiothreitol, 0.2% octyl β-D-glucopyranoside, 200 picomol p21 H-Ras, 4.5 picomol [^3 H]FPP (activity 61000 dpm/picomol).
Reaction is initiated by adding approximately 5 ng of human farnesyl transferase purified from THP1 cell cultures. After incubation for 20 minutes at 37° C. in a microtitration plate containing 96 1-cm^3 wells per plate (Titer Plate®, Beckman), the reaction is stopped by adding 0.4 cm^3 of 0.1% SDS in methanol at 0° C. The mixture is then treated with 0.4 cm^3 of 30% trichloroacetic acid (TCA) in methanol. The plates are left in ice for 1 hour. The precipitated contents are then retained on Filtermat®, Pharmacia) glass fibre membranes with the filtration unit (Combi Cell Harvester®, Skatron), and rinsed with 6% trichloroacetic acid in distilled water. The membranes are dried in a microwave oven, then impregnated with scintillation medium by melting of Meltilex® (Pharmacia) under hot air, and lastly counted in cpm in a β-Plate counter® (LKB). Each test is repeated 3 times.
The unit of activity is defined as 1 picomole of [^3 H]FPP transferred to p21 H-Ras in 20 minutes.
The percentage inhibition values are obtained by comparison of the tests with and without inhibitor after deduction of blanks, the IC50 values being measured on the basis of the inhibitions obtained with 9 different concentrations using Enzfitter® or Grafit® software.

For test [2], the system named is farnesylation of the Ras protein in THAC cells (CCL 39 cells transfected with activated Ha-Ras). The test can be described thus: Activity against cells: inhibition of farnesylation of the Ras protein in THAC cells (Western blot). The note with it: CCL39, 24 h at 37° C. It is filed as cell-based. Here is the method: The activity against cells can be determined in the following way:
The cell line is the THAC line (CCL 39 cells transfected with activated Ha-Ras) according to K. Seuwen et al., EMBO J., 7(1) 161-168 (1988). The cells are cultured in Petri dishes with a diameter of 6 cm containing a DMEM medium, 5% foetal calf serum and 1% G418.
After culturing for 24 hours, the culture medium is changed (with or without the serum) and the product to be studied is added in solution in dimethylformamide (DMF), in the presence or in the absence of DTT (final concentrations of 0.5% in DMF and 0.1 mM in DTT). After culturing for 24 hours at 37° C., the cells are lysed in 1 cm^3 of lysis buffer (20 mM Tris, HCl, 1% Triton X114, 5 mM MgCl2, 7 mM DTT, 150 mM NaCl, pH=7.4). The lysates are clarified by centrifuging at 4000 revolutions/minute for 10 minutes. […] The radioactivity of the bands corresponding to farnesylated Ras and to non-farnesylated Ras makes it possible to determine the percentage of inhibition of farnesylation of the Ras protein.

Take `CSCC[C@H](NC(=O)c1ccc(NC[C@@H](N)CS)c2ccccc12)C(=O)O` [Example 1, N-[4-(2(R)-amino-3-mercaptopropylamino)naphthyl-1-carbonyl]-L-methionine]: the IC50 in test [1] came to 23 nM.

`COC(=O)[C@H](CCSC)NC(=O)c1ccc(NC[C@@H](N)CS)c2ccccc12` [Example 2, methyl ester of N-[4-(2(R)-amino-3-mercaptopropylamino)naphthyl-1-carbonyl]-L-methionine]: in test [1], the IC50 stood at 100 nM. In test [2], this molecule registered an inhibition at 10 µM of 40%.

Turning to `CSCC[C@H](NC(=O)c1cc(NC[C@@H](N)CS)cc2ccccc12)C(=O)O` [Example 4, N-[3-(2(R)-amino-3-mercaptopropylamino)naphthyl-1-carbonyl]-L-methionine], the IC50 in test [1] came to 31 nM.

`COC(=O)[C@H](CCSC)NC(=O)c1cc(NC[C@@H](N)CS)cc2ccccc12` [Example 5, methyl ester of N-[3-(2(R)-amino-3-mercaptopropylamino)naphthyl-1-carbonyl]-L-methionine]: in test [1], the IC50 was found to be 300 nM.

Regarding `CSCC[C@H](NC(=S)c1cc(NC[C@@H](N)CS)cc2ccccc12)C(=O)O` [Example 6, N-[3-(2(R)-amino-3-mercaptopropylamino)naphthyl-1-thiocarbonyl]-L-methionine], the IC50 in test [1] stood at 55 nM.

For orientation: IC50 means the concentration needed to halve the response being measured. A word on the inhibition: it is the share of the control response that was lost under treatment.
